The subject of data set [1] is tubulin in HuVEC cells. In words: Action on microtubule function, α-tubulin staining in HuVEC. The format is cell-based, human. As to conditions: 2 μM, 30 minutes, vs DMSO control. From the text:
Human umbilical vein endothelial cells (HuVEC from Cambrex) were used in this study.

For data set [2], the system named is drug-resistant MES-SA cells (p-glycoprotein induced). Kind of data set: Inhibitory effect on tumor proliferation, drug-resistant MES-SA transplanted tumor. Type of data set: in vivo. As to conditions: drug-resistant MES-SA nude mice, dose that does not reduce body weight, vs blank vehicle (FIG. 1). The protocol:
MES-SA cells (derived from ATCC) were cultured in low concentration of adriamycin for a long time to maintain sufficient cell viability and induced the expression of p-glycoprotein. After culturing for 10 months, the results of induced expression were detected by WB. After successful induction, the cells were cultured for one week in adriamycin-free medium. The tumor cells with adjusted concentration were inoculated into the armpit of nude mice. The transplanted tumors were treated with different drugs when they grew to a certain volume. Different doses of different drugs were administrated to blank mice to explore the drug dose not affecting the body weight of the animals, namely the dose to be administrated to treat the animals with transplanted tumors.

In data set [3] the test system is blood flow distribution in tissues and tumor tissue. In words: Blood flow distribution of tissues and tumor. Type of data set: in vivo, nude mice. The conditions noted are these: two hours after administration, same pharmacodynamic dose, vs blank vehicle. From the text: In this example, the effects of drugs on blood flow distribution of different tissues and organs at the same pharmacodynamic dose were simultaneously tested.

The subject of data set [4] is AGS human gastric adenocarcinoma cell strain. In words: CCK-8 cytotoxicity IC50, AGS. The conditions noted are these: 72 h, read-out: cytotoxicity IC50.
Description: AGS human gastric adenocarcinoma cell strain (purchased from Shanghai Cell Resource Center, Chinese Academy of Sciences)
(§1) a) The compound was serially diluted with DMSO starting from 0.5 μM, using twice echelon dilution.
(§2) The logarithmic growth phase cells were collected and counted. The cells were re-suspended in complete medium, whose concentration was adjusted according to the test results of the cell density optimization, and then seeded into 96-well plates with 100 μl of the cell suspension to each well. The cells were incubated in a 37° C., 100% relative humidity, 5% CO2 incubator for 24 hours.
(§3) b) The test compound was diluted with the medium to the corresponding action concentrations set up, and added into the cells in the plates at 25 μl/well. The test compound was prepared in 9 final action concentrations, which were obtained by sequentially diluted from 500 nM using twice echelon dilution.
(§4) c) The cells were incubated in a 37° C., 100% relative humidity, 5% CO2 incubator for 72 hours.
(§5) d) The medium was removed from the cells, and a complete medium containing 10% CCK-8 was added and incubated in a 37° C. incubator for 1-4 hours.
(§6) e) After gentle shaking, the absorbance at 450 nm of the sample was measured on a SpectraMax M5 Microplate Reader, and the inhibition ratio was calculated using the absorbance at 650 nm as reference.
(§7) The inhibition ratio of the drug on tumor cell growth was calculated as follows: tumor cell growth inhibition %=[(Ac−As)/(Ac−Ab)]×100%
(§8) The IC50 curve was fitted and the IC50 value was calculated using the software Graphpad Prism 5 and using the calculation formula log(inhibitor) vs. normalized response-variable slope or log(inhibitor) vs. response-variable slope.
The test system of data set [5] is A-673 human rhabdomyosarcoma cell strain. In words: CCK-8 cytotoxicity IC50, A-673. As to conditions: A673, 72 h, read-out: cytotoxicity IC50.
Description: (§9) To test the cytotoxic IC50 values of 14 candidate compounds against 5 cell strains (MDA-MB-231, HT-1080, AGS, A-673 & HUVEC) using a CCK-8 test kit.
as §1, §2, §3, §4, §5, §6, §7, §8
Data set [6] can be described thus: CCK-8 cytotoxicity IC50, HUVEC. As to conditions: human, HUVEC umbilical vein endothelial cells.
Description: HUVEC human umbilical vein endothelial cell strain (purchased from ScienCell Research Laboratories, Cat #8000, Lot #11233)
as §1, §2, §3, §4, §5, §6, §7, §8
Data set [7] has as its system HT-1080 human fibrosarcoma cell strain. In words: CCK-8 cytotoxicity IC50, HT-1080. As to conditions: HT-1080, 72 h, read-out: cytotoxicity IC50.
Description: as §9, §1, §2, §3, §4, §5, §6, §7, §8
The subject of data set [8] is MDA-MB-231 human breast cancer cell strain. In words: CCK-8 cytotoxicity IC50, MDA-MB-231. The conditions noted are these: MDA-MB-231, 72 h, read-out: cytotoxicity IC50.
Description: as §9
MDA-MB-231 human breast cancer cell strain (purchased from Shanghai Cell Resource Center, Chinese Academy of Sciences)
as §1, §2, §3, §4, §5, §6, §7, §8
For data set [9], the system named is neutrophil count. Kind of data set: Effect on the neutrophil count at equivalent pharmacodynamic dose. The conditions noted are these: rats, continuous administration for two weeks (FIG. 3).
Excerpt: Multiple doses of different drugs were administrated to the nude mice respectively and the potency of the drugs in inhibiting the transplanted tumor in the nude mice was investigated. Base on the investigation, the equivalent dose of each drug was identified and converted to rat dose before administrated to the rats. That is, by administrating the rats with relatively equivalent pharmacodynamic dose, the effect of the drugs on the neutrophil count was examined. After continuously administration for two weeks, blood samples were collected and neutrophil counts were measured (FIG. 3).
Data set [10] relates to tumor cells inoculated in nude mice. As to conditions: nude mice inoculated with tumor cells (FIG. 2A). The protocol: The nude mice inoculated with tumor cells were administrated with blank vehicle, docetaxel, compound 17 as well as the combination drug of docetaxel and compound 17. The tumor volume was measured at different time period after the administration and the change of tumor volume was evaluated. At the same time, the change of body weight of the nude mice was examined to evaluate the antitumor effect and the toxicity degree of the drug. In addition, based on the above administration and grouping methods, the blood neutrophil count level for normal SD rats was measured before administration and after the final administration to evaluate the influence of the drug on neutrophil counts.

Data set [11] in a line: Stability investigation (10-day accelerated stress testing).
Description: The tested conditions included 40° C., 60° C., humidity 75%, humidity 92.5%, and light. And under each condition, moisture, purity, maximum single impurity and total impurity of the compound tested were compared to that of day 0.
[12] abbreviates: Day 10, sample 1 (no stress condition given).

A word on the IC50: it is the point on the concentration scale where inhibition reaches its midpoint.

Turning to `CC(=O)O[C@H]1C(=O)[C@@]2(C)[C@H]([C@H](OC(=O)c3ccccc3)[C@]3(O)C[C@H](OC(=O)[C@H](O)[C@@H](NC(=O)c4ccccc4)c4ccccc4)C(C)=C1C3(C)C)[C@]1(OC(C)=O)CO[C@@H]1C[C@@H]2O` [Paclitaxel, paclitaxel, reference compound], the microtubule depolymerization result in data set [1] is given as “did not induce microtubule depolymerization”.

With `CC(C)(C)c1[nH]cnc1/C=C1\NC(=O)[C@H](Cc2ccccc2)NC1=O` [tert-butyl-phenylahistin, reference compound], in data set [1], the cell membrane blebbing result is “induced” and the microtubule depolymerization entry is recorded as “induced”.

In the case of `CC(C)(C)c1[nH]cnc1/C=c1\[nH]c(=O)/c(=C/C=C/c2cccc(C#N)c2)[nH]c1=O` [Compound 15], the “anti-tumor proliferation effect (tumor weight)” value (“anti-tumor proliferation effect” below) in [2] was “can effectively exert anti-tumor proliferation effects”. The “distribution of blood flow in tissues except tumor tissues” value (“distribution of blood flow” for short) in data set [3] was “did not significantly affect the distribution of blood flow in tissues except tumor tissues”. The “intratumoral blood flow distribution” value in data set [3] is “can significantly reduce the intratumoral blood flow distribution”. For the same molecule, in [1], the cell membrane blebbing result was “induced”. Moreover, in [1], the microtubule depolymerization result is reported as “induced”. Moreover, the half-inhibitory concentration (IC50) was 63.5 nM in data set [4], 94.9 nM in [5], 78.8 nM in [7] and 123 nM in data set [8]. Also, the IC50 at 72 h in data set [6] amounted to 78.6 nM. Also, the neutrophil count result in data set [9] is on record as “had no obvious effect on neutrophils”.

Take `CC(C)(C)c1[nH]cnc1/C=c1\[nH]c(=O)/c(=C/C=C/c2ccc(OC(F)(F)F)cc2)[nH]c1=O` [Compound 10]: in data set [2], the “anti-tumor proliferation effect” value is “can effectively exert anti-tumor proliferation effects”. For the same molecule, in data set [3], the “distribution of blood flow” value is “did not significantly affect the distribution of blood flow in tissues except tumor tissues”. For the same molecule, the “intratumoral blood flow distribution” value in data set [3] is on record as “can significantly reduce the intratumoral blood flow distribution”. In addition, the cell membrane blebbing result in data set [1] is “induced”. Besides, in [1], the microtubule depolymerization result is “induced”. The IC50 in data set [4] came to 94.9 nM; in [5], 165 nM; in data set [7] it was 224 nM; in [8], 105 nM. In addition, it took 363 nM to reach half-maximal inhibition in [6] (IC50 at 72 h). In data set [9], the neutrophil count result is “had no obvious effect on neutrophils”.

For the molecule `CC(C)(C)c1nc[nH]c1/C=c1\[nH]c(=O)/c(=C/C=C/c2cccc(F)c2)[nH]c1=O` [Compound 7], the “anti-tumor proliferation effect” value in data set [2] is on record as “can effectively exert anti-tumor proliferation effects”. The “distribution of blood flow” value in [3] was “did not significantly affect the distribution of blood flow in tissues except tumor tissues”. The “intratumoral blood flow distribution” value in [3] is “can significantly reduce the intratumoral blood flow distribution”. In addition, the cell membrane blebbing result in data set [1] is on record as “induced”. Also, the microtubule depolymerization result in data set [1] was “induced”. The IC50 was found to be 43 nM in [4], 35.4 nM in data set [5], 43.6 nM in data set [7] and 39.5 nM in data set [8]. In data set [6], this molecule had an IC50 at 72 h of 94.9 nM. The neutrophil count entry in data set [9] was “had no obvious effect on neutrophils”.

Turning to `COc1ccc(/C=C/C=c2\[nH]c(=O)/c(=C/c3nc[nH]c3C(C)(C)C)[nH]c2=O)cc1` [Compound 12], the “anti-tumor proliferation effect” value in data set [2] is on record as “can effectively exert anti-tumor proliferation effects”. Moreover, the “distribution of blood flow” value in data set [3] is “did not significantly affect the distribution of blood flow in tissues except tumor tissues”. For the same molecule, in data set [3], the “intratumoral blood flow distribution” value is recorded as “can significantly reduce the intratumoral blood flow distribution”. The cell membrane blebbing result in data set [1] is reported as “induced”. Besides, the microtubule depolymerization entry in data set [1] was “induced”. Besides, the IC50 in data set [4] stood at 35.3 nM; in [5], 37.3 nM; in [7], 136 nM; in [8] it was 45.5 nM. This molecule also yielded an IC50 at 72 h in data set [6] of 43.1 nM. Also, the neutrophil count entry in [9] is “had no obvious effect on neutrophils”.

As to `CC(C)(C)c1[nH]cnc1/C=c1\[nH]c(=O)/c(=C/C=C/c2cc(F)ccc2Cl)[nH]c1=O` [Compound 17], the “anti-tumor proliferation effect” value in [2] is listed as “can effectively exert anti-tumor proliferation effects”. Moreover, in [3], the “distribution of blood flow” value is “did not significantly affect the distribution of blood flow in tissues except tumor tissues”. The “intratumoral blood flow distribution” value in data set [3] is reported as “can significantly reduce the intratumoral blood flow distribution”. Further, the “inhibition of tumor proliferation (tumor volume)” value in data set [10] was “can effectively inhibit the proliferation of tumor in vivo”. The cell membrane blebbing result in data set [1] is reported as “induced”. Besides, in data set [1], the microtubule depolymerization entry was “induced”. Further, the IC50 in data set [4] stood at 10.8 nM; in data set [5], 7.25 nM; in data set [7] it was 14.6 nM; in data set [8] it was 20.4 nM. In data set [6], this molecule returned an IC50 at 72 h of 35 nM. Also, the “stability, overall finding” value in data set [11] (10-day accelerated test: 40° C., 60° C., humidity 75%, humidity 92.5%, light) is reported as “stable”. Also, the Content in [11] (Day 0) is 99.8%; in data set [11] (Day 5, 40° C.), 100.9%; in data set [11] (Day 5, 60° C.), 99.0%; in data set [11] (Day 5, humidity 75%) it was 99.5%; in data set [11] (Day 5, humidity 92.5%), 99.5%; in data set [11] (Day 5, light) it was 100.3%. Further, the Content stood at 100.5% in [11] (Day 10, 40° C.); 99.7% in [11] (Day 10, 60° C.); 99.0% in [11] (Day 10, humidity 75%); 99.4% in [11] (Day 10, humidity 92.5%); 99.6% in data set [11] (Day 10, light); 100.4% in [11] (setting [12]). The Maximum single impurity in data set [11] (Day 0) is given as 0.03 (RRT: 0.31) %; in data set [11] (Day 5, 40° C.) it was 0.02 (RRT: 0.31) %; in data set [11] (Day 5, 60° C.) it was 0.03 (RRT: 0.31) %; in data set [11] (Day 5, humidity 75%), 0.02 (RRT: 0.32) %; in data set [11] (Day 5, humidity 92.5%), 0.02 (RRT: 0.31) %; in data set [11] (Day 5, light), 0.04 (RRT: 0.31) %. Further, the Maximum single impurity in data set [11] (Day 10, 40° C.) is listed as 0.04 (RRT: 0.31) %; in [11] (Day 10, 60° C.) it was 0.03 (RRT: 0.31) %; in [11] (Day 10, humidity 75%) it was 0.04 (RRT: 0.31) %; in data set [11] (Day 10, humidity 92.5%), 0.03 (RRT: 0.31) %; in data set [11] (Day 10, light), 0.04 (RRT: 0.31) %; in [11] (setting [12]), 0.03 (RRT: 0.31) %. The Moisture came out at 0.1% in data set [11] (Day 0); 0.1% in data set [11] (Day 5, 40° C.); 0.2% in data set [11] (Day 5, 60° C.); 0.2% in data set [11] (Day 5, humidity 75%); 0.3% in [11] (Day 5, humidity 92.5%); 0.1% in [11] (Day 5, light). Also, the Moisture turned out to be 0.1% in data set [11] (Day 10, 40° C.); 0.2% in data set [11] (Day 10, 60° C.); 0.2% in [11] (Day 10, humidity 75%); 0.3% in data set [11] (Day 10, humidity 92.5%); 0.1% in [11] (Day 10, light); 0.1% in data set [11] (setting [12]). Further, the Total impurity in [11] (Day 0) stood at 0.06%; in data set [11] (Day 5, 40° C.), 0.05%; in [11] (Day 5, 60° C.), 0.06%; in [11] (Day 5, humidity 75%), 0.07%; in data set [11] (Day 5, humidity 92.5%), 0.07%; in [11] (Day 5, light), 0.07%. Moreover, the Total impurity was determined as 0.07% in [11] (Day 10, 40° C.); 0.08% in [11] (Day 10, 60° C.); 0.11% in data set [11] (Day 10, humidity 75%); 0.08% in data set [11] (Day 10, humidity 92.5%); 0.09% in [11] (Day 10, light); 0.08% in [11] (setting [12]). In addition, the neutrophil count result in data set [9] is on record as “had no obvious effect on neutrophils”.

The record behind these values is patent US10640492B2, “Tubulin inhibitor” (SHENZHEN NEPTUNUS PHARMACEUTICAL RESEARCH INSTITUTE CO., …, priority 2016, dated 2020).
